Measured values from ChEMBL document CHEMBL3885861, “Open TG-GATES”.

Species on record: Rattus norvegicus
Test: Open TG-GATES - Regimen: Single
Format: toxicity, organism-based, Sprague-Dawley
Set-up: regimen Single, gender Male, age 6 weeks
Settings: in vivo, po, route gavage; for TC / TP / gamma-GTP / ALP / ALT / AST / BUN / CRE / Cl / IP / LDH / PL / RALB / TBIL / Ca / DBIL / K / Na: tissue Plasma; for APTT / Bas / Eos / Fbg / Hb / Ht / Lym / MCH / MCHC / MCV / Mono / PT / Plat / RBC / Ret / WBC: tissue Blood; for KIDNEY_L / KIDNEY_R / KIDNEY_TOTAL: tissue Kidney; for LIVER: tissue Liver
[1] = 0 mg/kg, 24 h, dose level Control

Compound `C#C[C@]1(O)CC[C@H]2[C@@H]3CCc4cc(O)ccc4[C@H]3CC[C@@]21C` [ETHINYL ESTRADIOL] has a TC [1] of 84.6 mg/dL, a TP [1] of 5.4 g/dL and a gamma-GTP [1] of 0.8 IU/L. It also gave a TERMINAL_BW (1 mg/kg, 3 h, dose level Low) of 195 g, an APTT (1 mg/kg, 3 h, dose level Low) of 16.3 s and a Bas (1 mg/kg, 3 h, dose level Low) of 0%. It also gave an Eos (1 mg/kg, 3 h, dose level Low) of 1%, a Fbg (1 mg/kg, 3 h, dose level Low) of 258.2 mg/dL and a Hb (1 mg/kg, 3 h, dose level Low) of 13 g/dL. For the same compound, the Ht (1 mg/kg, 3 h, dose level Low) was 39.1%, the Lym (1 mg/kg, 3 h, dose level Low) was 80.2% and the MCH (1 mg/kg, 3 h, dose level Low) was 21.9 pg. The MCHC (1 mg/kg, 3 h, dose level Low) was 33.4%, the MCV (1 mg/kg, 3 h, dose level Low) was 65.4 fL and the Mono (1 mg/kg, 3 h, dose level Low) was 3.4%. For the same compound, the PT (1 mg/kg, 3 h, dose level Low) was 12.3 s, the Plat (1 mg/kg, 3 h, dose level Low) was 118.9 x10_4/uL and the RBC (1 mg/kg, 3 h, dose level Low) was 598.2 x10_4/ul. It also gave a Ret (1 mg/kg, 3 h, dose level Low) of 9.4%, a WBC (1 mg/kg, 3 h, dose level Low) of 96.2 x10_2/uL and a KIDNEY_L (1 mg/kg, 3 h, dose level Low) of 0.8 g. The KIDNEY_R (1 mg/kg, 3 h, dose level Low) was 0.8 g, the KIDNEY_TOTAL (1 mg/kg, 3 h, dose level Low) was 1.6 g and the LIVER (1 mg/kg, 3 h, dose level Low) was 8.5 g. For the same compound, the ALP (1 mg/kg, 3 h, dose level Low) was 1630.2 IU/L, the ALT (1 mg/kg, 3 h, dose level Low) was 49 IU/L and the AST (1 mg/kg, 3 h, dose level Low) was 78.4 IU/L. For the same compound, the BUN (1 mg/kg, 3 h, dose level Low) was 11 mg/dL, the CRE (1 mg/kg, 3 h, dose level Low) was 0.2 mg/dL and the Cl (1 mg/kg, 3 h, dose level Low) was 106 meq/L. For the same compound, the IP (1 mg/kg, 3 h, dose level Low) was 9.2 mg/dL, the LDH (1 mg/kg, 3 h, dose level Low) was 54.2 IU/L and the PL (1 mg/kg, 3 h, dose level Low) was 146.4 mg/dL. For the same compound, the RALB (1 mg/kg, 3 h, dose level Low) was 2.6 g/dL, the TBIL (1 mg/kg, 3 h, dose level Low) was 0.038 mg/dL and the TC (1 mg/kg, 3 h, dose level Low) was 77.6 mg/dL. The TP (1 mg/kg, 3 h, dose level Low) was 5.5 g/dL, the TERMINAL_BW (1 mg/kg, 6 h, dose level Low) was 195.9 g and the APTT (1 mg/kg, 6 h, dose level Low) was 15.3 s. For the same compound, the Bas (1 mg/kg, 6 h, dose level Low) was 0%, the Eos (1 mg/kg, 6 h, dose level Low) was 1% and the Fbg (1 mg/kg, 6 h, dose level Low) was 262.8 mg/dL. The Hb (1 mg/kg, 6 h, dose level Low) was 12.9 g/dL, the Ht (1 mg/kg, 6 h, dose level Low) was 38.6% and the Lym (1 mg/kg, 6 h, dose level Low) was 68.6%. The MCH (1 mg/kg, 6 h, dose level Low) was 21.8 pg, the MCHC (1 mg/kg, 6 h, dose level Low) was 33.5% and the MCV (1 mg/kg, 6 h, dose level Low) was 65.2 fL. For the same compound, the Mono (1 mg/kg, 6 h, dose level Low) was 2.4%, the PT (1 mg/kg, 6 h, dose level Low) was 12.4 s and the Plat (1 mg/kg, 6 h, dose level Low) was 110.9 x10_4/uL. It also gave an RBC (1 mg/kg, 6 h, dose level Low) of 591.6 x10_4/ul, a Ret (1 mg/kg, 6 h, dose level Low) of 9.8% and a WBC (1 mg/kg, 6 h, dose level Low) of 83.7 x10_2/uL. For the same compound, the KIDNEY_L (1 mg/kg, 6 h, dose level Low) was 0.8 g, the KIDNEY_R (1 mg/kg, 6 h, dose level Low) was 0.8 g and the KIDNEY_TOTAL (1 mg/kg, 6 h, dose level Low) was 1.7 g. For the same compound, the LIVER (1 mg/kg, 6 h, dose level Low) was 8 g, the ALP (1 mg/kg, 6 h, dose level Low) was 1545.4 IU/L and the ALT (1 mg/kg, 6 h, dose level Low) was 40.8 IU/L. The AST (1 mg/kg, 6 h, dose level Low) was 80.8 IU/L, the BUN (1 mg/kg, 6 h, dose level Low) was 8 mg/dL and the CRE (1 mg/kg, 6 h, dose level Low) was 0.2 mg/dL. For the same compound, the Ca (1 mg/kg, 6 h, dose level Low) was 10.5 mg/dL, the Cl (1 mg/kg, 6 h, dose level Low) was 109.4 meq/L and the DBIL (1 mg/kg, 6 h, dose level Low) was 0.01 mg/dL. For the same compound, the IP (1 mg/kg, 6 h, dose level Low) was 10 mg/dL, the K (1 mg/kg, 6 h, dose level Low) was 4 meq/L and the LDH (1 mg/kg, 6 h, dose level Low) was 42.2 IU/L. For the same compound, the Na (1 mg/kg, 6 h, dose level Low) was 144.6 meq/L, the PL (1 mg/kg, 6 h, dose level Low) was 112 mg/dL and the RALB (1 mg/kg, 6 h, dose level Low) was 2.4 g/dL. It also gave a TBIL (1 mg/kg, 6 h, dose level Low) of 0.04 mg/dL, a TC (1 mg/kg, 6 h, dose level Low) of 55 mg/dL and a TP (1 mg/kg, 6 h, dose level Low) of 5.2 g/dL. It also gave a TERMINAL_BW (1 mg/kg, 9 h, dose level Low) of 196.1 g, an APTT (1 mg/kg, 9 h, dose level Low) of 15.5 s and a Bas (1 mg/kg, 9 h, dose level Low) of 0%. It also gave an Eos (1 mg/kg, 9 h, dose level Low) of 0.8%, a Fbg (1 mg/kg, 9 h, dose level Low) of 265.6 mg/dL and a Hb (1 mg/kg, 9 h, dose level Low) of 12.7 g/dL. For the same compound, the Ht (1 mg/kg, 9 h, dose level Low) was 37.6%, the Lym (1 mg/kg, 9 h, dose level Low) was 75.4% and the MCH (1 mg/kg, 9 h, dose level Low) was 21.9 pg. It also gave an MCHC (1 mg/kg, 9 h, dose level Low) of 33.7%, an MCV (1 mg/kg, 9 h, dose level Low) of 65.1 fL and a Mono (1 mg/kg, 9 h, dose level Low) of 2.4%. For the same compound, the PT (1 mg/kg, 9 h, dose level Low) was 12.8 s, the Plat (1 mg/kg, 9 h, dose level Low) was 110 x10_4/uL and the RBC (1 mg/kg, 9 h, dose level Low) was 578.2 x10_4/ul. It also gave a Ret (1 mg/kg, 9 h, dose level Low) of 9.3%, a WBC (1 mg/kg, 9 h, dose level Low) of 75.5 x10_2/uL and a KIDNEY_L (1 mg/kg, 9 h, dose level Low) of 0.9 g. It also gave a KIDNEY_R (1 mg/kg, 9 h, dose level Low) of 0.8 g, a KIDNEY_TOTAL (1 mg/kg, 9 h, dose level Low) of 1.7 g and an LIVER (1 mg/kg, 9 h, dose level Low) of 7.7 g. For the same compound, the ALP (1 mg/kg, 9 h, dose level Low) was 1698.8 IU/L, the ALT (1 mg/kg, 9 h, dose level Low) was 37.6 IU/L and the AST (1 mg/kg, 9 h, dose level Low) was 75.6 IU/L. It also gave a BUN (1 mg/kg, 9 h, dose level Low) of 9.2 mg/dL, a CRE (1 mg/kg, 9 h, dose level Low) of 0.2 mg/dL and a Ca (1 mg/kg, 9 h, dose level Low) of 10.6 mg/dL. The Cl (1 mg/kg, 9 h, dose level Low) was 109 meq/L, the DBIL (1 mg/kg, 9 h, dose level Low) was 0.012 mg/dL and the IP (1 mg/kg, 9 h, dose level Low) was 10.2 mg/dL. The K (1 mg/kg, 9 h, dose level Low) was 3.8 meq/L, the LDH (1 mg/kg, 9 h, dose level Low) was 40.6 IU/L and the Na (1 mg/kg, 9 h, dose level Low) was 145.2 meq/L. For the same compound, the PL (1 mg/kg, 9 h, dose level Low) was 96.4 mg/dL, the RALB (1 mg/kg, 9 h, dose level Low) was 2.5 g/dL and the TBIL (1 mg/kg, 9 h, dose level Low) was 0.042 mg/dL. It also gave a TC (1 mg/kg, 9 h, dose level Low) of 44.8 mg/dL, a TP (1 mg/kg, 9 h, dose level Low) of 5.2 g/dL and a gamma-GTP (1 mg/kg, 9 h, dose level Low) of 1.2 IU/L. It also gave a TERMINAL_BW (1 mg/kg, 24 h, dose level Low) of 200.1 g, an APTT (1 mg/kg, 24 h, dose level Low) of 14.9 s and a Bas (1 mg/kg, 24 h, dose level Low) of 0%. For the same compound, the Eos (1 mg/kg, 24 h, dose level Low) was 1%, the Fbg (1 mg/kg, 24 h, dose level Low) was 224.6 mg/dL and the Hb (1 mg/kg, 24 h, dose level Low) was 13.1 g/dL. For the same compound, the Lym (1 mg/kg, 24 h, dose level Low) was 75.2%, the MCHC (1 mg/kg, 24 h, dose level Low) was 34% and the MCV (1 mg/kg, 24 h, dose level Low) was 62.5 fL. For the same compound, the Mono (1 mg/kg, 24 h, dose level Low) was 3.4%, the PT (1 mg/kg, 24 h, dose level Low) was 13.2 s and the Plat (1 mg/kg, 24 h, dose level Low) was 107.2 x10_4/uL. For the same compound, the RBC (1 mg/kg, 24 h, dose level Low) was 619.8 x10_4/ul, the Ret (1 mg/kg, 24 h, dose level Low) was 7.6% and the WBC (1 mg/kg, 24 h, dose level Low) was 93.7 x10_2/uL. For the same compound, the KIDNEY_L (1 mg/kg, 24 h, dose level Low) was 0.9 g, the KIDNEY_R (1 mg/kg, 24 h, dose level Low) was 0.9 g and the KIDNEY_TOTAL (1 mg/kg, 24 h, dose level Low) was 1.8 g. The LIVER (1 mg/kg, 24 h, dose level Low) was 9.3 g, the ALP (1 mg/kg, 24 h, dose level Low) was 2023.4 IU/L and the AST (1 mg/kg, 24 h, dose level Low) was 74.8 IU/L. For the same compound, the CRE (1 mg/kg, 24 h, dose level Low) was 0.2 mg/dL, the Ca (1 mg/kg, 24 h, dose level Low) was 10.8 mg/dL and the Cl (1 mg/kg, 24 h, dose level Low) was 106.4 meq/L. For the same compound, the DBIL (1 mg/kg, 24 h, dose level Low) was 0.024 mg/dL, the IP (1 mg/kg, 24 h, dose level Low) was 7.4 mg/dL and the K (1 mg/kg, 24 h, dose level Low) was 4 meq/L. It also gave an LDH (1 mg/kg, 24 h, dose level Low) of 59.6 IU/L, a Na (1 mg/kg, 24 h, dose level Low) of 142.8 meq/L and a PL (1 mg/kg, 24 h, dose level Low) of 113.6 mg/dL. The RALB (1 mg/kg, 24 h, dose level Low) was 2.5 g/dL, the TBIL (1 mg/kg, 24 h, dose level Low) was 0.034 mg/dL and the TC (1 mg/kg, 24 h, dose level Low) was 40.8 mg/dL. It also gave a TP (1 mg/kg, 24 h, dose level Low) of 5.3 g/dL and a gamma-GTP (1 mg/kg, 24 h, dose level Low) of 1.2 IU/L.
